Experimental data from PMC6138237, “Machine intelligence decrypts β-lapachone as an allosteric 5-lipoxygenase inhibitor” (Chemical Science, 2018).
Read-outs that look alike come from different tables or passages of the source.

Columns and labels:
Assay type in all cases: biochemical
[1] = molecular target: T1, AurA (Homo sapiens, UniProt O14965); experiment: ExpresS Diversity Kinase Profile, Cerep (LANCE): AurA
T1 sequence (O14965 1-403): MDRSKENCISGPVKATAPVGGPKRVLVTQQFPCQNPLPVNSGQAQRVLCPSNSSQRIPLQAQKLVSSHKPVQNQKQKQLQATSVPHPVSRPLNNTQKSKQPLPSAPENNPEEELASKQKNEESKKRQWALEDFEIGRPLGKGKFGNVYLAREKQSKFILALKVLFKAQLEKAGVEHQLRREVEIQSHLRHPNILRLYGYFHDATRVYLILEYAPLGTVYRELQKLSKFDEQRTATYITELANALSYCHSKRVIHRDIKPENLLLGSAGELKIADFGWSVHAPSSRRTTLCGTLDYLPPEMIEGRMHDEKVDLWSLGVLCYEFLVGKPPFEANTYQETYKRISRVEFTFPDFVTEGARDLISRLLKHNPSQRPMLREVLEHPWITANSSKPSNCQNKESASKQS

[2] = molecular target: EphA2 (Homo sapiens, UniProt P29317); experiment: ExpresS Diversity Kinase Profile, Cerep (LANCE): EphA2
EphA2, sequence (P29317 24-976): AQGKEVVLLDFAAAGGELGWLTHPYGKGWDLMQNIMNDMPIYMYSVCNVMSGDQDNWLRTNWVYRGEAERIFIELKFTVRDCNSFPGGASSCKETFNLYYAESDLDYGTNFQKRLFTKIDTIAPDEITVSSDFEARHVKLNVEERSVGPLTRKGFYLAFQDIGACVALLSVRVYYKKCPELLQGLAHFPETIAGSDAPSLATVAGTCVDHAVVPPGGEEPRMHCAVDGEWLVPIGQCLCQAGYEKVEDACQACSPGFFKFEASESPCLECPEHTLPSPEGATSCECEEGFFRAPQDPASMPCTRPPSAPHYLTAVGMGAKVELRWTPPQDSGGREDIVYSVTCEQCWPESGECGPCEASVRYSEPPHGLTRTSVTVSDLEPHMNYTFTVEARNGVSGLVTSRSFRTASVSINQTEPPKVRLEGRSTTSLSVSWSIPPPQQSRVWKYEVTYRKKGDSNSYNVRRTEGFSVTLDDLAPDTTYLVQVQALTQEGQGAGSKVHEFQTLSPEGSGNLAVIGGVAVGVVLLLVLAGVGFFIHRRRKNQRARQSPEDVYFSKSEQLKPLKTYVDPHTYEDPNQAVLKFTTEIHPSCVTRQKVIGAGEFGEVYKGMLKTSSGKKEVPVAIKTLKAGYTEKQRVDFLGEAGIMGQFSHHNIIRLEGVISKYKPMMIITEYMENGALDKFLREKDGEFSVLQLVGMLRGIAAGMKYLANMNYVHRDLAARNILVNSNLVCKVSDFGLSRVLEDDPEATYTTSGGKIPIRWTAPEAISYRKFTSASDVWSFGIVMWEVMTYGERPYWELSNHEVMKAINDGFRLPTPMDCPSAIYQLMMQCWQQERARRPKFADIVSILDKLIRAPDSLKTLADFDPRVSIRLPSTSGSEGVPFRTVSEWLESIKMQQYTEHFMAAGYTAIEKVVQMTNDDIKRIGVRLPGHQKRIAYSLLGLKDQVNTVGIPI

[3] = molecular target: T2, EphB4 (Homo sapiens, UniProt P54760); experiment: ExpresS Diversity Kinase Profile, Cerep (LANCE): EphB4
T2 sequence (P54760 16-987): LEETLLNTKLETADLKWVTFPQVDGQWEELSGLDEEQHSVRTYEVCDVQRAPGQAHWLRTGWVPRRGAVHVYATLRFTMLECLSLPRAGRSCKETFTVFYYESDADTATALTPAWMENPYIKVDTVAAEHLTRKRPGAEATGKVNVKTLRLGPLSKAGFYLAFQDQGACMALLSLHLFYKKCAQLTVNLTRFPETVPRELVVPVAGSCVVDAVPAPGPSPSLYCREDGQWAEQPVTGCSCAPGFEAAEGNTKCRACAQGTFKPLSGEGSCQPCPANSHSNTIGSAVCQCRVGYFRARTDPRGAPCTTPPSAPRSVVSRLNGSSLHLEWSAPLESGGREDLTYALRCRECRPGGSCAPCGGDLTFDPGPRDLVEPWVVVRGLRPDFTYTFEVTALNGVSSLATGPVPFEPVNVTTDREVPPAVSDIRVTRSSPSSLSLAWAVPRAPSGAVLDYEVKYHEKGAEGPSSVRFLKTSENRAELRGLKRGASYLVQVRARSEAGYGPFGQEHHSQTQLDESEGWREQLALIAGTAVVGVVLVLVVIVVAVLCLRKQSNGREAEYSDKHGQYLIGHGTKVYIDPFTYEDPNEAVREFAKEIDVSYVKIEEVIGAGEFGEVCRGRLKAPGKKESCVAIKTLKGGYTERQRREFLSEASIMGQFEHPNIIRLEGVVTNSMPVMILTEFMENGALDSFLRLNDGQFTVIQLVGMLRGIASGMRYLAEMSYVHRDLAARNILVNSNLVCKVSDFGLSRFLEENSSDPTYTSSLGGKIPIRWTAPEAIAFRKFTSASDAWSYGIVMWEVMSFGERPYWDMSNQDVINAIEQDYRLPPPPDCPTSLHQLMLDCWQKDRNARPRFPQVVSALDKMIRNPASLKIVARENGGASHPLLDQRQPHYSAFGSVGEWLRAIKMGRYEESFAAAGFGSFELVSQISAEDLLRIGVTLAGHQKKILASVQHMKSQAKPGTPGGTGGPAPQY

[4] = molecular target: VEGFR2 (Homo sapiens, UniProt P35968); experiment: ExpresS Diversity Kinase Profile, Cerep (LANCE): VEGFR2
VEGFR2, sequence (P35968 20-1356): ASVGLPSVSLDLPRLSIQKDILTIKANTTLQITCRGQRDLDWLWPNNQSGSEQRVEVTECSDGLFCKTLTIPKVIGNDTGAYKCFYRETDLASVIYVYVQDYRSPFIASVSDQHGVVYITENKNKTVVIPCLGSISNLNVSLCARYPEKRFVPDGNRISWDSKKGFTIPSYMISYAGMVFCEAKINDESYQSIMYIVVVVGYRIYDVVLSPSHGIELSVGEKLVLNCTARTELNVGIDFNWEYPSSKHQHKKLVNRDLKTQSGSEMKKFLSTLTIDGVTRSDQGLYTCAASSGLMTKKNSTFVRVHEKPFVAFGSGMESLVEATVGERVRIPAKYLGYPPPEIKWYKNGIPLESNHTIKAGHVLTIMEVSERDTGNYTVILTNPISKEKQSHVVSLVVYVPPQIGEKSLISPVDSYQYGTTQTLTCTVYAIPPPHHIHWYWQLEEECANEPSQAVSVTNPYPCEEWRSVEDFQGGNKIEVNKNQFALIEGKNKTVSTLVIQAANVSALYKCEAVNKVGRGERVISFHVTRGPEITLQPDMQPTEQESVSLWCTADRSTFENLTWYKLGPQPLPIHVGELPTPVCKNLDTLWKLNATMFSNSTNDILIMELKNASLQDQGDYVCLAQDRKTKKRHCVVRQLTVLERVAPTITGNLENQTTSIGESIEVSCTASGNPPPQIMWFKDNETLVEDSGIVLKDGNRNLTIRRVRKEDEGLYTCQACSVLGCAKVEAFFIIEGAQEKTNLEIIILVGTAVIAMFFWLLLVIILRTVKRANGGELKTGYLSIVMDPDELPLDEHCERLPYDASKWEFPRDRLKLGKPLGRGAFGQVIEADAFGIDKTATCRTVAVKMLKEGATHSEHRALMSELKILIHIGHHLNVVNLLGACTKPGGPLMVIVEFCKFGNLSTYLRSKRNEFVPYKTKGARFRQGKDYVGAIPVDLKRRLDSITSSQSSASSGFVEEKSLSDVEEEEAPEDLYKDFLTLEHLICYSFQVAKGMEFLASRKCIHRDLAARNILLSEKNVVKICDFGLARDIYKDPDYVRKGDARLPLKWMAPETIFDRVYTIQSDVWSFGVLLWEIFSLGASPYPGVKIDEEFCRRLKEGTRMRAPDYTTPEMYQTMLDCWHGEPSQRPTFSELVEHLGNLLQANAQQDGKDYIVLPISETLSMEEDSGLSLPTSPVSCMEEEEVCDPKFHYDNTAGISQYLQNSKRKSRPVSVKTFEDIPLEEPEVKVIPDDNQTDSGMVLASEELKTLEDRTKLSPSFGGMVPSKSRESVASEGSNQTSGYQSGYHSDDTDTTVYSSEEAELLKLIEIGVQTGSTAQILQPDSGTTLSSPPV

[5] = molecular target: T3, CHK1 (Homo sapiens, UniProt O14757); experiment: ExpresS Diversity Kinase Profile, Cerep (LANCE): CHK1
T3 sequence (O14757 1-476): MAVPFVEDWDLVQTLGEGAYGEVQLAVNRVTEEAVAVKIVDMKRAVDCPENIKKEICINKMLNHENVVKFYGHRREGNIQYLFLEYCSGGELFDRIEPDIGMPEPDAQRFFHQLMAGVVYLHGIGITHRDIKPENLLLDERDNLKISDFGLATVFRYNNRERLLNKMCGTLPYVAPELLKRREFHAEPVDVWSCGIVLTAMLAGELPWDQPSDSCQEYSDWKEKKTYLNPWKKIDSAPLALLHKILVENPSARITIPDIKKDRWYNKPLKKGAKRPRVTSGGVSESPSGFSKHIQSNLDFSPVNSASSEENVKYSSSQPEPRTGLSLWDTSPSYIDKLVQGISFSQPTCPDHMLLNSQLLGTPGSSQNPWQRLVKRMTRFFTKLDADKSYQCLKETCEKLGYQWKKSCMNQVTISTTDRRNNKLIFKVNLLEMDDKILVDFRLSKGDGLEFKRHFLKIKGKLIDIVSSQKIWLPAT

[6] = molecular target: c-Met (Homo sapiens, UniProt P08581); experiment: ExpresS Diversity Kinase Profile, Cerep (LANCE): c-Met
c-Met, sequence (P08581 25-1390): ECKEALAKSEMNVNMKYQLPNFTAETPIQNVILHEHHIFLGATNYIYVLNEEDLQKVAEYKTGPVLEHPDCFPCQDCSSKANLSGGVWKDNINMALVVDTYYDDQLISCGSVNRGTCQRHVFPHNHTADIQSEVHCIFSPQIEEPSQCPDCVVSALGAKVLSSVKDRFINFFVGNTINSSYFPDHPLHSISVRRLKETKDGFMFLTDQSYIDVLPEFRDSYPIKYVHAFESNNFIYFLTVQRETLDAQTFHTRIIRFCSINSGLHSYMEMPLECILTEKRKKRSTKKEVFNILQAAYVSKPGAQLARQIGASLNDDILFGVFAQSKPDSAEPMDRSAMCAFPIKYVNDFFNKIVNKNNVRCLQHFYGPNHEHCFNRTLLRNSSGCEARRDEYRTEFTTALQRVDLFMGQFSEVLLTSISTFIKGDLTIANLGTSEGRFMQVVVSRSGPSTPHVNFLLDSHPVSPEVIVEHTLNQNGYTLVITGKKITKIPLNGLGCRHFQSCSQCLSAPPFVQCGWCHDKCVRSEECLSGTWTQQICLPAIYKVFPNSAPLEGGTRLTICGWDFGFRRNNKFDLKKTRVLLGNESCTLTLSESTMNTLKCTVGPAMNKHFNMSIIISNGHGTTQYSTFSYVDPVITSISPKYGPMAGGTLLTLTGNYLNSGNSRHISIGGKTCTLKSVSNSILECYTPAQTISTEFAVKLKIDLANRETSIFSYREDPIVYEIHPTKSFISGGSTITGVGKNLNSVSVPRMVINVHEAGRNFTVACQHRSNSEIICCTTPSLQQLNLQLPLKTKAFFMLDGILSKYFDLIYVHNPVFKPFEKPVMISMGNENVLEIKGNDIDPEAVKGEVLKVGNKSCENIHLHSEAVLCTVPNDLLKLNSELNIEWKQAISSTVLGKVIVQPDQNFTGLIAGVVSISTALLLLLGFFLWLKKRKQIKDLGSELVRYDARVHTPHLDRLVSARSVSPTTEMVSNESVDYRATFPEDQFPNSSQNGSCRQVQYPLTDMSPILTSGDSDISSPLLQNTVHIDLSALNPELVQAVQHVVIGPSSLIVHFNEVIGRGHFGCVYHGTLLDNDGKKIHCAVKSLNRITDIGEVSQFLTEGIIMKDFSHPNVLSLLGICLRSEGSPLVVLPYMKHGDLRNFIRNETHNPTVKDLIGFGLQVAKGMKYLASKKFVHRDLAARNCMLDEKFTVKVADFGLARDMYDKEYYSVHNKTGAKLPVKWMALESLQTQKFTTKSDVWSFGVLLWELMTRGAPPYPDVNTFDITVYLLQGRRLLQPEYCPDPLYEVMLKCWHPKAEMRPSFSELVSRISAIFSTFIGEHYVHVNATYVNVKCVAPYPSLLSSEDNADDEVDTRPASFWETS

[7] = Flag: Interference, read-out: % Inhibition of control values, 1st measurement
[8] = Flag: Interference, read-out: % Inhibition of control values, 2nd measurement
[9] = n = 2, Flag: Interference, read-out: % Inhibition of control values, Mean

CN[C@@H]1C[C@H]2O[C@@](C)([C@@H]1OC)n1c3ccccc3c3c4c(c5c6ccccc6n2c5c31)C(=O)NC4 [Staurosporine, reference compound]
nHill ([1]; control): 2.5 | nHill ([2]; control): 1.6 | nHill ([3]; control): 1.1 | nHill ([4]; control): 1.2 | nHill ([5]; control): 1.5 | nHill ([6]; control): 1.8

CC1(C)CCC2=C(O1)c1ccccc1C(=O)C2=O [β-Lapachone]
inhibition at 150 µM [1, 7]: -16.5% | inhibition at 150 µM [1, 8]: 0.2% | inhibition at 150 µM [1, 9]: -8.1% | inhibition at 150 µM [2, 7]: 63.7% | inhibition at 150 µM [2, 8]: 63.5% | inhibition at 150 µM [2, 9]: 63.6% | inhibition at 150 µM [3, 7]: 54.6% | inhibition at 150 µM [3, 8]: 55.1% | inhibition at 150 µM [3, 9]: 54.8% | inhibition at 150 µM ([4]; n = 2, read-out: % Inhibition of control values, Mean): 82.3% | inhibition at 150 µM ([4]; read-out: % Inhibition of control values, 1st measurement): 82.7% | inhibition at 150 µM ([4]; read-out: % Inhibition of control values, 2nd measurement): 82% | inhibition at 150 µM [5, 7]: 9.4% | inhibition at 150 µM [5, 8]: 19.7% | inhibition at 150 µM [5, 9]: 14.5% | inhibition at 150 µM [6, 7]: 45.3% | inhibition at 150 µM [6, 8]: 50.6% | inhibition at 150 µM [6, 9]: 47.9%
